Columns and labels:
Assay type in all cases: cell-based, human
[1] = system: CD34+ cells from peripheral blood; test: AMPLIFICATION PROTOCOL: ex vivo amplification of hematopoietic progenitors
Description: This is a strategy for the amplification of hematopoietic progenitors. The culture is formed as follows: CD34^+ cells from peripheral blood are isolated (as indicated in section II.A.1), and cultured for 12 days in Stem Span II medium (Stem Cell Technologies) supplemented with cytokines: SCF 100 ng/mL, FLT3-L 100 ng/mL, TPO 20 ng/mL, G-CSF 10 ng/mL. The amplification product is analyzed by quantification of proliferation (count on Malassez slides) and phenotypic analysis of CD34^+ cell subpopulations by flow cytometry. […] Vitisin B is also compared with the following stilbene-type molecules at 10 μM concentration: Resveratrol, Pallidol, E-Viniferin, Ampelopsin, Oxyresveratrol, Picateatannol, Gnetol
At the end of the hematopoietic cell amplification protocol, an analysis of cell proliferation and amplification of immature and committed cell populations is performed.
Cell proliferation is evaluated by counting cells on Malassez slides with Trypan blue exclusion of dead cells.
The amplification of cell populations is based on a phenotypic analysis relating to the evolution of the expression of membrane markers CD34 and CD133 by flow cytometry. These markers make it possible to define more or less immature cell populations organized hierarchically as follows: CD34^+CD133^+->CD34^+CD133^neg->CD34^negCD133^neg. To this end, cells are incubated with anti-CD34 (1:100,000) (BD Pharmingen) and anti-CD133 (1:100,000) (BD Pharmingen) antibodies for 15 minutes. The cells are then rinsed with a PBS solution and centrifuged (430×g, 10 min, 4° C.). After resuspension of the cell pellets in PBS, the cells are analyzed by flow cytometry (FACSCantoll, Becton Dickinson, San Jose, CA).
The proportions of each phenotypic population thus observed and the total amount of cells make it possible to calculate the rate of amplification of the most immature cells (CD34^+CD133+) compared with the amplification of more committed progenitors (CD34^+CD133^neg and CD34^negCD133^neg).

[2] = system: peripheral blood CD34+ cells; test: ERYTHRO 2 PROTOCOL: three-phase erythrocyte differentiation; details: peripheral blood CD34+ cells in homeostasis, 10 μM
Excerpt: (§1) This protocol was applied to CD34^+ cells. Phase 1 of this protocol was in particular applied to BFU-E cells. This protocol was adapted from Vlaski et al. (Experimental Hematology 2009; 37:573-584).
(§2) The ex vivo erythrocyte production was established on a 28-day cell culture and involves three phases, namely 1) amplification of primitive erythrocyte progenitors, then 2) differentiation of said progenitors into erythrocyte precursors, and finally 3) the terminal stage of maturation with cell enucleation and development of mature erythrocytes.
(§3) i. Detailed Description of the Three Phases of the Protocol • Phase I of the protocol starts on DO with the seeding of 10^4 cells/mL in 5 mL of supplemented IMDM medium as defined below (see section ii). On day 4, dilution of the culture is performed by recovering 3 mL, which is replaced with the same volume of fresh medium. […] From day 11 to the end of the process, the cells are placed on a layer of mesenchymal stromal cells (MSCs) (coculture), allowing terminal maturation into functional enucleated cells by virtue of the contact between stromal cells and erythrocyte precursors. Suspended erythrocyte cells are seeded at a concentration of 3×10^5/ml and co-cultured from day 11 to day 15 in fresh medium with cytokines (SCF, IL-3, EPO and HC) and 5% fetal calf serum (FCS) required for MSCs. On day 15, the suspended erythrocyte cells are removed from culture, washed, then reseeded onto a new adherent layer of MSCs and cultured for a further four days in 2 mL of fresh medium containing only EPO. • Phase III of the protocol begins on day 19. At this stage, the cells complete their maturation by the enucleation of orthochromatic erythroblasts to form reticulocytes, leading to the formation of erythrocytes. On day 19, the cells are washed and spread on a new layer of MSCs in 2 mL of fresh cytokine-free medium. On day 23, the cultures are fed with fresh medium until day 28, corresponding to the last day of culture in the erythropoiesis protocol. ii. Description of the Culture Medium
(§4) The cells are incubated in Iscove's Modified Dulbecco Medium (IMDM_PAN BIOTECH) supplemented with various reagents to obtain a medium promoting the growth of cells committed to the erythrocyte lineage, namely: • L-Glutamine (4 mM), • Streptomycin and penicillin (1%), • Inositol (40 μg/mL), • Folic acid (10 μg/mL), • Mono-thioglycerol (1.6×10^−4 M), • Transferrin (120 μg/mL), • Insulin (10 μg/mL), N • Iron nitrate (90 ng/mL), • Iron sulfate (900 ng/mL) • Human serum albumin (10 mg/ml).
(§5) After preparation of the culture medium, cytokines are added extemporaneously to the culture medium: • Stem Cell Factor (SCF) at 100 ng/mL, • Interleukin-3 (IL-3) at 5 ng/mL, • Erythropoietin (EPO) at 3 IU/mL, • Hydrocortisone (HC) at 10^−6 M. The CD34^+ cells are incubated at 20% O2 and 5% CO2 at 37° C. for 28 days. iii. Description of the Culture Conditions Applied In order to test the effect of vitisin B in this context, various conditions were defined.
(§6) • CTRL condition: Absence of vitisin B throughout the entire protocol. • Condition I: Presence of vitisin B (10 μM) during phase I of the protocol. • […]: Presence of vitisin B (10 μM) during phases I and II of the protocol. • Condition III: Presence of vitisin B (10 μM) during the three phases of the protocol.
(§7) Analyses are performed on cells from each condition. The differentiation and maturation of erythrocyte cells are monitored by quantifying progenitors, analyzing the expression of GPA and CD71 markers, and also by morphological analysis.
(§8) During and at the end of the various erythrocyte differentiation protocols, cell proliferation and cell differentiation are analyzed. Cell proliferation is evaluated by counting of cells on Malassez slides, with Trypan blue exclusion of dead cells. […]

[3] = system: placental blood CD34+ cells; test: as above
Excerpt: as §1, §2, §3, §4, §5, §6, §7, §8

## Oc1ccc(C2Oc3ccc(/C=C/c4cc(O)cc5c4[C@H](c4cc(O)cc(O)c4)[C@@H](c4ccc(O)cc4)O5)cc3C2c2cc(O)cc3c2C(c2cc(O)cc(O)c2)C(c2ccc(O)cc2)O3)cc1 (stereo in doubt) [vitisin B, 5-[(2R,2'S,3R,3'S)-5-[(1E)-2-[(2S,3S)-3-(3,5-Dihydroxyphenyl)-2,3-dihydro-6-hydroxy-2-(4-hydroxyphenyl)-4-benzofuranyl]ethenyl]-2,2′,3,3′-tetrahydro-6′-hydroxy-2,2′-bis(4-hydroxyphenyl)[3,4′-bibenzofuran]-3′-yl]-1,3-benzenediol]
[1]; 10 μM, 12-day culture, FIG. 1
  amplification of the total amount of progenitors of the CD34+ phenotype: up to 250%
[1]; 10 μM, FIG. 1
  amplification of the CD34+CD133neg subpopulation (erythrocyte potential): induces amplification
[1]; 10 μM, FIG. 2
  effect on the proportion and total amount of CD34+CD133neg cells: convincing effect
[1]; 50 μM versus 10 μM
  effect of increasing the dose on total CD34+ and CD34+CD133neg populations: no additional effect
[2]
  cell proliferation from the transition to phase II: sharp increase
[3]; 10 μM, versus CTRL, FIG. 6A
  percentage of cells with the phenotype CD71negGPA+: increases
[3]; Days 0 to 11, 10 μM, versus CTRL, FIG. 5
  cell proliferation in phase I: similar
[3]; condition I: vitisin B 10 μM during phase I only, FIG. 5
  number of cells relative to the control condition (CTRL): 1.5 times
[3]; day 8 of culture, stated without distinguishing conditions
  cells expressing GPA: less than 20%
[3]; day 28, 10 μM (CTRL 40%), FIG. 6A
  cells expressing GPA: more than 50%
[3]; from Day 11, peak on day 21, 10 μM, conditions I, II, III, FIG. 5
  cell proliferation from the transition to phase II: sharp increase
[3]; vitisin B 10 μM in phase I, FIG. 6B
  absolute number of cells with the phenotype CD71negGPA+: increases
